Measured values taken from patent publication US11919902B2, “Aryl-bipyridine amine derivatives as phosphatidylinositol phosphate kinase inhibitors” (HiberCell, Inc., priority 2017, dated 2024).

Tests used:
GST tagged PIP4KtypeIIA = target: T1, GST tagged PIP4KtypeIIA (Homo sapiens, UniProt P48426); assay: ADP-glo kinase assay PIP4K 2A (PIP4KtypeIIA inhibition assay); assay type: biochemical; conditions: Table 3; compounds listed under IC50 range headings; 10 uM ATP, 0.5 nM PIP4KIIA
T1 construct: made in house; host or cells: E. coli
T1 sequence (P48426 1-406): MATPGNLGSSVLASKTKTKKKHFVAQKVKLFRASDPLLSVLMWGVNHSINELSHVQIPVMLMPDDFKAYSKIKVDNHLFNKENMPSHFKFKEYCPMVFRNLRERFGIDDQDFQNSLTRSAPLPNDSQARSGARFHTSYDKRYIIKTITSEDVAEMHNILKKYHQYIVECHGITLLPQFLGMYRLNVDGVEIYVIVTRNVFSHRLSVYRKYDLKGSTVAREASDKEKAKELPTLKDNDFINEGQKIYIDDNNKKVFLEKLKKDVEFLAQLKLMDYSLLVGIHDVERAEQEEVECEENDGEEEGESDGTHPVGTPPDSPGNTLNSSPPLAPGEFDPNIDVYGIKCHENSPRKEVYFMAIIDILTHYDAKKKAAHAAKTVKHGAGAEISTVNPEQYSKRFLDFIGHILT
Procedure, shortened: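 Read-out was ADP-Glo luminescence converted to μM ADP, with IC50 plotted as % of no-inhibitor activity against log concentration. Reactions contained 10 μM ATP, 80 μM PI5P with DOPE carrier, and 0.5 nM GST-tagged PIP4KIIA (E. coli-expressed) in pH 7.3 HEPES/MgCl2 buffer with 5% DMSO. Enzyme and compound (≤4.8 μM) were preincubated 1 h at 27 °C before the 1 h reaction.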

[1] = target: T2, PIP4K2A (full length protein, SignalChem) (Homo sapiens, UniProt P48426); assay: Kinase Assay PIP4K2 A (Sprint); ADP-Glo biochemical assay; conditions: Table 2; compounds listed under IC50 range headings
T2 construct: 4 nM PIP4K2A (full length protein, SignalChem); purchased SignalChem
T2 sequence (P48426 1-406): T1 sequence (P48426 1-406)
Procedure, shortened: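 ADP-Glo luminescence detected ADP after a 1 h RT reaction started with 60 μM ATP solution. Before that, full-length PIP4K2A (4 nM in mix) with 100 μM PI(5)P diC8 was pre-incubated 15 min with compounds in MOPS buffer pH 7.2, 25 mM MgCl2, 0.005% Tween 20. IC50 derived from % inhibition relative to DMSO over 10 three-fold concentrations.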

GST tagged PIP4KtypeIIB = target: T3, GST tagged PIP4KtypeIIB (Homo sapiens, UniProt P78356); assay: Trans-FI P kinase assay PIP4K2B (PIP4KtypeIIB inhibition assay); assay type: biochemical; conditions: Table 4; compounds listed under IC50 range headings; 100 uM GTP, 5 nM PIP4KIIB; read-out: Trans-FI P kinase assays: PIP4K2B IC50
T3 construct: made in house; host or cells: E. coli
T3 sequence (P78356 1-416): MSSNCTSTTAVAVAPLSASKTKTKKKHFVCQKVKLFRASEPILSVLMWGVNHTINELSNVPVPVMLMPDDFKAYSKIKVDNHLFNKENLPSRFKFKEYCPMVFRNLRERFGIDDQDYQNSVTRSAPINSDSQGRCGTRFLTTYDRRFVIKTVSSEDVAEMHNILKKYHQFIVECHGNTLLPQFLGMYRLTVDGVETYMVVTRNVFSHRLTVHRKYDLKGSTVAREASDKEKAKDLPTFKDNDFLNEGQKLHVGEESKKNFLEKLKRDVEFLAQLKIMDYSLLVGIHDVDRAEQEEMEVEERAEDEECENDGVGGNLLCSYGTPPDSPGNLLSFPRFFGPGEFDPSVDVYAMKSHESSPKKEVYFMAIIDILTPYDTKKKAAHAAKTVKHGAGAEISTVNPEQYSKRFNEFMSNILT
Procedure, shortened: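 Transcreener FI fluorescence, converted to GDP by calibration, tracked product from 5 nM E. coli-expressed GST-PIP4KIIB acting on 80 uM PI5P (DOPE carrier) with 100 uM GTP. Compound (top 4.8 uM final, 5% DMSO) was preincubated 1 h at 27 C before the 2 h reaction; IC50 fitted from residual activity.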

| SMILES | IC50 (GST tagged PIP4KtypeIIA) | IC50 [1] | IC50 (GST tagged PIP4KtypeIIB) |
| --- | --- | --- | --- |
| COc1ncc(-c2cncc(-c3ccc(N4CCCC4=O)cc3)c2)c2cn(C)nc12 [Example 157, 1-[4-[5-(7-methoxy-2-methyl-pyrazolo[3,4-c]pyridin-4-yl)-3-pyridyl]phenyl]pyrrolidin-2-one] | 100 to 1000 nM | 100 to 1000 nM | 100 to 1000 nM |
| Cn1ncc2c(-c3cncc(-c4ccc(N5CCCC5=O)cc4)c3)c[nH]c(=O)c21 [Example 158, 1-methyl-4-(5-(4-(2-oxopyrrolidin-1-yl)phenyl)pyridin-3-yl)-1,6-dihydro-7H-pyrazolo[3,4-c]pyridin-7-one] | 100 to 1000 nM | 5 to 100 nM | 100 to 1000 nM |
| Cn1cc2c(-c3cncc(-c4ccc(N5CCCC5=O)cc4)c3)c[nH]c(=O)c2n1 [Example 159, 2-methyl-4-(5-(4-(2-oxopyrrolidin-1-yl)phenyl)pyridin-3-yl)-2,6-dihydro-7H-pyrazolo[3,4-c]pyridin-7-one] | 100 to 1000 nM | 5 to 100 nM | 100 to 1000 nM |
| Cn1ncc2c(-c3cncc(-c4ccc(N5CCCC5=O)cc4)c3)cn(CC#N)c(=O)c21 [Example 160, 2-(1-methyl-7-oxo-4-(5-(4-(2-oxopyrrolidin-1-yl)phenyl)pyridin-3-yl)-1,7-dihydro-6H-pyrazolo[3,4-c]pyridin-6-yl)acetonitrile] | 100 to 1000 nM | 100 to 1000 nM | 100 to 1000 nM |
| CC(C)OC(=O)c1cc2c(-c3cncc(-c4ccc(N5CCCC5=O)cc4)c3)ccnc2[nH]1 [Example 161, isopropyl 4-(5-(4-(2-oxopyrrolidin-1-yl)phenyl)pyridin-3-yl)-1H-pyrrolo[2,3-b]pyridine-2-carboxylate] | 100 to 1000 nM | 5 to 100 nM | 10 to 100 nM |
| CCOC(=O)c1cc2c(-c3cncc(-c4ccc(N5CCCC5=O)cc4)c3)ccnc2[nH]1 [Example 162, ethyl 4-(5-(4-(2-oxopyrrolidin-1-yl)phenyl)pyridin-3-yl)-1H-pyrrolo[2,3-b]pyridine-2-carboxylate] | 100 to 1000 nM | 5 to 100 nM | 10 to 100 nM |
| O=C(O)c1cc2c(-c3cncc(-c4ccc(N5CCCC5=O)cc4)c3)ccnc2[nH]1 [Example 163, 4-(5-(4-(2-oxopyrrolidin-1-yl)phenyl)pyridin-3-yl)-1H-pyrrolo[2,3-b]pyridine-2-carboxylic acid] | 100 to 1000 nM | 5 to 100 nM | 10 to 100 nM |
| Cc1ncc(-c2ccncc2)cc1-c1ccc(N2CCCC2=O)cc1 [Example 164, 1-(4-(6-methyl-3,4′-bipyridin-5-yl)phenyl)pyrrolidin-2-one] | > 5000 nM | 2500 to 5000 nM | 2500 to 5000 nM |
| COC(=O)c1cc2c(-c3cncc(-c4ccc(N5CCCC5=O)cc4)c3)ccnc2o1 [Example 165, methyl 4-(5-(4-(2-oxopyrrolidin-1-yl)phenyl)pyridin-3-yl)furo[2,3-b]pyridine-2-carboxylate] | 10 to 100 nM | 5 to 100 nM | 10 to 100 nM |
| O=C(NC1COC1)c1cc2c(-c3cncc(-c4ccc(N5CCCC5=O)cc4)c3)ccnc2o1 [Example 166, N-(oxetan-3-yl)-4-(5-(4-(2-oxopyrrolidin-1-yl)phenyl)pyridin-3-yl)furo[2,3-b]pyridine-2-carboxamide] | 10 to 100 nM | 5 to 100 nM | 100 to 1000 nM |
| CC(C)OC(=O)c1cc2c(-c3cncc(-c4ccc(N5CCCC5=O)cc4)c3)ccnc2o1 [Example 167, isopropyl 4-(5-(4-(2-oxopyrrolidin-1-yl)phenyl)pyridin-3-yl)furo[2,3-b]pyridine-2-carboxylate] | 10 to 100 nM | 5 to 100 nM | 10 to 100 nM |
| Cc1cc(N2CCCC2=O)ccc1-c1cncc(-c2cn(C)c3ncc(C(C)(C)O)cc23)c1 [Example 168, 1-(4-(5-(5-(2-hydroxypropan-2-yl)-1-methyl-1H-pyrrolo[2,3-b]pyridin-3-yl)pyridin-3-yl)-3-methylphenyl)pyrrolidin-2-one] | 2500 to 5000 nM | 100 to 1000 nM | 2500 to 5000 nM |
